Laboratory results as given in patent publication US20250163056A1, “NONMUSCLE MYOSIN II INHIBITORS” (The University of Florida Research Foundation, Inc., priority 2018, published 2025).

Experiments:
Rabbit skeletal myosin = experiment: Skeletal muscle myosin II actin-activated ATPase assay; assay type: biochemical; settings: 20 nM skeletal muscle myosin II; read-out: SKMMII KI
Text: (§1) The cardiac muscle myosin II actin-activated ATPase assay is a biochemical assay. Specifically, it is an NADH (nicotinamide adenine dinucleotide)-coupled ATPase assay that relies on NADH fluorescence as a readout. Cardiac myosin is a mechanochemical energy transducer that hydrolyzes ATP to generate force in the presence of its activator, F-actin. The resulting ADP is regenerated to ATP by pyruvate kinase (PK) that transforms one molecule of phosphoenolpyruvate (PEP) to pyruvate in parallel. Subsequently, pyruvate is reduced to lactate by lactate dehydrogenase (LDH) that, in turn, oxidizes one molecule of NADH to NAD. Therefore, the decrease in NADH concentration as a function of time equals the ATP hydrolysis rate. Bovine cardiac myosin is obtained from a commercial source, Cytoskeleton. PK, LDH, ATP, PEP, and NADH are obtained from Sigma. F-actin is prepared in house from Rabbit Muscle Acetone Powder. The assay is run at 25° C. in 384 well black-wall polystyrene microplates with a total volume of 20 μl per well. NADH fluorescence is monitored for 30 minutes with an EnVision Multimode Plate Reader. The slope of the fluorescence response, which is proportional to the reaction rate, is determined by simple linear regression. Final assay conditions are 300 nM cardiac myosin, 10 μM actin, 40 U/ml LDH, 200 U/ml PK, 220 μM NADH, 1 mM PEP, 1 mM ATP in a buffer containing 10 mM 3-(N-morpholino)propanesulfonic acid (pH=7.0), 2 mM MgCl2, 0.15 mM ethylene glycol-bis(p-aminoethyl ether)-N,N,N′,N′-tetraacetic acid, 0.1 mg/mL bovine serum albumin, 0.5% (V/V) dimethyl sulfoxide (DMSO) and 1 mM dithiothreitol. Prior to testing the inhibitory activity of the compounds, a two-fold dilution series starting at 10 mM compound concentration is prepared in DMSO. Subsequently, 100 nl is transferred to each well of the measuring plate containing a mixture of myosin, LDH and PK. The enzymatic reaction is started with the addition of a mixture containing ATP, PEP, NADH and actin. The highest final compound concentration is 50 uM. 20 μM para-aminoblebbistatin in 0.5% DMSO serves as the positive control and 0.5% DMSO alone is the negative control. Reaction rates are determined by using the fluorescence responses of a dilution series of NADH included in all plates and plotted as a function of inhibitor concentration. All measurements are carried out in triplicate. Inhibitory constants are determined by fitting the 16 point dose-response data to a quadratic equation corresponding to a simple one-to-one binding model.
The skeletal muscle myosin II actin-activated ATPase assay is performed the same as for cardiac muscle myosin II with the following exceptions: Rabbit skeletal myosin is obtained from Cytoskeleton and the final assay conditions contain 20 nM skeletal muscle myosin II.

Bovine cardiac myosin = Bovine cardiac myosin (Bos taurus (Bovine), UniProt Q9BE39); experiment: Cardiac muscle myosin II actin-activated ATPase assay (NADH-coupled); assay type: biochemical; set-up: key to Ratio CMMII:NMII Ki/EC50: NMII-sel: no Ki value for cardiac myosin II could be determined; the compounds had no detectable inhibitory properties versus the cardiac myosin II; settings: for Ki: 300 nM cardiac myosin, 10 μM actin, 25° C., read-out: CMMII KI; for Ratio CMMII:NMII Ki/EC50: cardiac myosin II Ki over nonmuscle myosin II EC50
Sequence of Bovine cardiac myosin (Q9BE39 whole entry): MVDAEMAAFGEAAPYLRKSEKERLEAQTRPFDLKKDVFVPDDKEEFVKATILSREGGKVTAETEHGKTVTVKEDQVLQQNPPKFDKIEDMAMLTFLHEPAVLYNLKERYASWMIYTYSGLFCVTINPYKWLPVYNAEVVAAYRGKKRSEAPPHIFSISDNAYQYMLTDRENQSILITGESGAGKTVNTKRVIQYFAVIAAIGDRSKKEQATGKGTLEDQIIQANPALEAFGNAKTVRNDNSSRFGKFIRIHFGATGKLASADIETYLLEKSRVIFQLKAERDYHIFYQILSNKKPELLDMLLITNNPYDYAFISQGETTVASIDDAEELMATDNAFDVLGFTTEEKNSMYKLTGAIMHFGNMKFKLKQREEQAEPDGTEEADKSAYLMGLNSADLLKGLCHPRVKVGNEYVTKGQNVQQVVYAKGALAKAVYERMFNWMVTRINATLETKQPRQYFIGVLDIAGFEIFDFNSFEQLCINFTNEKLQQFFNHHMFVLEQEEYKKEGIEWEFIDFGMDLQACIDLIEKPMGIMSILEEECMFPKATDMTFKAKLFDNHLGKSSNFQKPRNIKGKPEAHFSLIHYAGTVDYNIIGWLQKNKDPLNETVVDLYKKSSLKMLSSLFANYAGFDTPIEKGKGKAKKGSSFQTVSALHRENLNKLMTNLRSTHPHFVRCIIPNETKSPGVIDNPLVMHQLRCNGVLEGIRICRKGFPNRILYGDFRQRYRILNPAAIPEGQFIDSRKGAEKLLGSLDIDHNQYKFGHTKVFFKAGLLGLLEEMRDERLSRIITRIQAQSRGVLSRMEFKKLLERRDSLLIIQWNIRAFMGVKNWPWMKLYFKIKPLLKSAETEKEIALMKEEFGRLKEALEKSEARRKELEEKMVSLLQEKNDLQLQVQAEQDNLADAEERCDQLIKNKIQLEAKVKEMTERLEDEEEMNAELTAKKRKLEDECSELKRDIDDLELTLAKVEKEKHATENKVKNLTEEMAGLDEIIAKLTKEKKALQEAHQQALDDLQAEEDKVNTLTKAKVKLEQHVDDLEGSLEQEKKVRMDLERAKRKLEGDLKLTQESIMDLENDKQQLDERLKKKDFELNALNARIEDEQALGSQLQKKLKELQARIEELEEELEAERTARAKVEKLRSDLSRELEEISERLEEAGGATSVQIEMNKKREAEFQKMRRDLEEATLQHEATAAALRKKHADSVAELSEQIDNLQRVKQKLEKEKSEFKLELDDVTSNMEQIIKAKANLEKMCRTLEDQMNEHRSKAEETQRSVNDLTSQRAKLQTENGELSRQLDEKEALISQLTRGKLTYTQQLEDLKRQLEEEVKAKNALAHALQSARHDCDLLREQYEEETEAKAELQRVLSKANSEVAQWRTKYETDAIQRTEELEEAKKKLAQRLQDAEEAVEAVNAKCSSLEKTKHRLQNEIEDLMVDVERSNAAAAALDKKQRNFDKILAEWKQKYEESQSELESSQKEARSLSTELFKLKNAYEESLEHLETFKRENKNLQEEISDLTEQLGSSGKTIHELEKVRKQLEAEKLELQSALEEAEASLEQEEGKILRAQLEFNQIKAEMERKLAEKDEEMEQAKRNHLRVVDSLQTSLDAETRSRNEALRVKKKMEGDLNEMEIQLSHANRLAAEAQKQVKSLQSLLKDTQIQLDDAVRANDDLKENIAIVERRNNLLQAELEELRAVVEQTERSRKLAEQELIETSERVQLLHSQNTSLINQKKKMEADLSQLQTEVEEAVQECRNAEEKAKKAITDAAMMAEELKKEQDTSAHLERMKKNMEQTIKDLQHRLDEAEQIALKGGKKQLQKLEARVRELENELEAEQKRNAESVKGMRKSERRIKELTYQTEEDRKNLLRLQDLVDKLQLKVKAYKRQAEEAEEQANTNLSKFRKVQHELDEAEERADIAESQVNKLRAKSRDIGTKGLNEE
Sequence of Bovine cardiac myosin (P85100 whole entry partner): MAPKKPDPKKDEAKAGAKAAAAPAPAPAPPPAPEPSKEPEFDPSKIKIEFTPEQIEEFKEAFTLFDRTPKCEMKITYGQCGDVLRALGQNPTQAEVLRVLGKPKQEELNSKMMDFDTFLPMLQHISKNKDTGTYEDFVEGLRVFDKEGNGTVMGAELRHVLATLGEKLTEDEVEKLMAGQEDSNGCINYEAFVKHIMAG
Sequence of Bovine cardiac myosin (Q3SZE5 whole entry partner): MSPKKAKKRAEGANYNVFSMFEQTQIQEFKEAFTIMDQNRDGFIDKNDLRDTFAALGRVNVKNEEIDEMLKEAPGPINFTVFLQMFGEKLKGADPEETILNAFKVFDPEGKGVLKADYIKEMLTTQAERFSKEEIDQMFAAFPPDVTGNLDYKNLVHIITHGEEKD
Text: as §1

[1] = Photostability, percentage remaining undegraded under illumination or in the dark; settings: for Photostability 4 hours: percentage remaining undegraded after 4 hours illumination; for Photostability 24 hours: percentage remaining undegraded after 24 hours illumination; for Photostability Dark (24 h): percentage remaining undegraded in the dark

Cc1ccc(N2CC[C@@]3(O)C(=O)c4cc(F)c(C)cc4N=C23)cc1 [BPN-0026579]
Ki (Rabbit skeletal myosin): 0.37 µM
Ki (Bovine cardiac myosin): 5 µM
Ratio CMMII:NMII Ki/EC50 (Bovine cardiac myosin): 5.0
Photostability 4 hours [1]: 77.3%
Photostability 24 hours [1]: 8.5%
Photostability Dark (24 h) [1]: 93.7%

COc1ccc(N2CC[C@@]3(O)C(=O)c4cc(F)c(C)cc4N=C23)cc1 [BPN-0026605]
Ki (Rabbit skeletal myosin): 0.29 µM
Ki (Bovine cardiac myosin): 15 µM
Ratio CMMII:NMII Ki/EC50 (Bovine cardiac myosin): 15.0
Photostability 4 hours [1]: 69.6%
Photostability 24 hours [1]: 2.3%
Photostability Dark (24 h) [1]: 94.2%

Cc1ccc(N2CC[C@@]3(O)C(=O)c4cc(F)c(C)cc4N=C23)cc1C [BPN-0026607]
Ki (Rabbit skeletal myosin): 5.8 µM
Ratio CMMII:NMII Ki/EC50 (Bovine cardiac myosin): NMII-sel
Photostability 4 hours [1]: 98.5%
Photostability 24 hours [1]: 84.7%
Photostability Dark (24 h) [1]: 98.1%

N#Cc1ccc(N2CC[C@@]3(O)C(=O)c4cc(C(F)(F)F)ccc4N=C23)cc1 [BPN-0026608]
Ki (Rabbit skeletal myosin): 1.7 µM
Ki (Bovine cardiac myosin): 50 µM
Ratio CMMII:NMII Ki/EC50 (Bovine cardiac myosin): 11.6
Photostability 4 hours [1]: 86.7%
Photostability 24 hours [1]: <1%
Photostability Dark (24 h) [1]: 97.5%

COc1cccc(N2CC[C@@]3(O)C(=O)c4cc(F)c(C)cc4N=C23)c1 [BPN-0026618]
Ki (Rabbit skeletal myosin): 5.9 µM
Ki (Bovine cardiac myosin): 18 µM
Ratio CMMII:NMII Ki/EC50 (Bovine cardiac myosin): 3.8
Photostability 4 hours [1]: 92.3%
Photostability 24 hours [1]: 17.2%
Photostability Dark (24 h) [1]: 96.6%

Cc1cc2c(cc1F)C(=O)[C@]1(O)CCN(c3ccc4ccoc4c3)C1=N2 [BPN-0026619]
Ki (Rabbit skeletal myosin): 2.5 µM
Ki (Bovine cardiac myosin): 36 µM
Ratio CMMII:NMII Ki/EC50 (Bovine cardiac myosin): 22.5
Photostability 4 hours [1]: 77.4%
Photostability 24 hours [1]: <1%
Photostability Dark (24 h) [1]: 91.0%

Cc1cccc(N2CC[C@@]3(O)C(=O)c4cc(F)c(C)cc4N=C23)c1 [BPN-0026620]
Ki (Rabbit skeletal myosin): 16 µM
Ratio CMMII:NMII Ki/EC50 (Bovine cardiac myosin): NMII-sel
Photostability 4 hours [1]: 94.1%
Photostability 24 hours [1]: 27.8%
Photostability Dark (24 h) [1]: 92.8%

COc1cc(N2CC[C@@]3(O)C(=O)c4cc(Cl)ccc4N=C23)ccn1 [BPN-0026621]
Ki (Rabbit skeletal myosin): 3.4 µM
Ki (Bovine cardiac myosin): 40 µM
Ratio CMMII:NMII Ki/EC50 (Bovine cardiac myosin): 7.0
Photostability 4 hours [1]: 93.3%
Photostability 24 hours [1]: 61.4%
Photostability Dark (24 h) [1]: 93.5%

Cc1cc2c(s1)N=C1N(c3cccc(Br)c3)CC[C@@]1(O)C2=O [BPN-0026624]
Ki (Rabbit skeletal myosin): 24 µM
Ki (Bovine cardiac myosin): 210 µM
Ratio CMMII:NMII Ki/EC50 (Bovine cardiac myosin): 14.0
Photostability 4 hours [1]: 90.5%
Photostability 24 hours [1]: 88.2%
Photostability Dark (24 h) [1]: 92.2%

Cc1cc2c(cc1F)C(=O)[C@]1(O)CCN(c3ccc(C#N)cc3)C1=N2 [BPN-0026638]
Ki (Rabbit skeletal myosin): 0.37 µM
Ki (Bovine cardiac myosin): 12 µM
Ratio CMMII:NMII Ki/EC50 (Bovine cardiac myosin): 7.1
Photostability 4 hours [1]: 87.9%
Photostability 24 hours [1]: 71.9%
Photostability Dark (24 h) [1]: 91.6%

Cc1cc2c(s1)N=C1N(c3ccc4ccoc4c3)CC[C@@]1(O)C2=O [BPN-0026639]
Ki (Rabbit skeletal myosin): 1.1 µM
Ki (Bovine cardiac myosin): 14 µM
Ratio CMMII:NMII Ki/EC50 (Bovine cardiac myosin): 4.2
Photostability 4 hours [1]: 89.8%
Photostability 24 hours [1]: 49.5%
Photostability Dark (24 h) [1]: >99%

O=C1c2cc(Cl)ccc2N=C2N(c3ccc(Cl)cc3)CC[C@@]12O [BPN-0026640]
Ki (Rabbit skeletal myosin): 0.53 µM
Ki (Bovine cardiac myosin): 8 µM
Ratio CMMII:NMII Ki/EC50 (Bovine cardiac myosin): 4.0
Photostability 4 hours [1]: 71.1%
Photostability 24 hours [1]: 17.8%
Photostability Dark (24 h) [1]: 96.8%

O=C1c2cc(Cl)c(Cl)cc2N=C2N(c3ccccc3)CC[C@@]12O [BPN-0026643]
Ki (Rabbit skeletal myosin): 1.9 µM
Ki (Bovine cardiac myosin): 17 µM
Ratio CMMII:NMII Ki/EC50 (Bovine cardiac myosin): 3.5
Photostability 4 hours [1]: 64.0%
Photostability 24 hours [1]: <1%
Photostability Dark (24 h) [1]: 85.1%

Cc1cc2c(cc1C(F)(F)F)N=C1N(c3ccccc3)CC[C@@]1(O)C2=O [BPN-0026648]
Ki (Rabbit skeletal myosin): 4.5 µM
Ki (Bovine cardiac myosin): 56 µM
Ratio CMMII:NMII Ki/EC50 (Bovine cardiac myosin): 11.9
Photostability 4 hours [1]: 94.3%
Photostability 24 hours [1]: 84.3%
Photostability Dark (24 h) [1]: 97.7%

Cc1ccc2c(c1)C(=O)[C@]1(O)CCN(c3ccc4ccsc4c3)C1=N2 [BPN-0026650]
Ki (Rabbit skeletal myosin): 4.3 µM
Ratio CMMII:NMII Ki/EC50 (Bovine cardiac myosin): NMII-sel
Photostability 4 hours [1]: 80.5%
Photostability 24 hours [1]: 5.5%
Photostability Dark (24 h) [1]: >99%

Cc1ccc2c(c1)C(=O)[C@]1(O)CCN(c3ccc4sccc4c3)C1=N2 [BPN-0026651]
Ki (Rabbit skeletal myosin): 3.9 µM
Ratio CMMII:NMII Ki/EC50 (Bovine cardiac myosin): NMII-sel
Photostability 4 hours [1]: 73.0%
Photostability 24 hours [1]: 5.8%
Photostability Dark (24 h) [1]: 97.5%

Cc1cc2c(cc1Cl)C(=O)[C@]1(O)CCN(c3ccccc3)C1=N2 [BPN-0026659]
Ki (Rabbit skeletal myosin): 0.93 µM
Ki (Bovine cardiac myosin): 9 µM
Ratio CMMII:NMII Ki/EC50 (Bovine cardiac myosin): 3.5
Photostability 4 hours [1]: 72.1%
Photostability 24 hours [1]: 17.9%
Photostability Dark (24 h) [1]: 91.1%

Cc1cc2c(cc1C)C(=O)[C@]1(O)CCN(c3cccc(Br)c3)C1=N2 [BPN-0026660]
Ki (Rabbit skeletal myosin): 33 µM
Ratio CMMII:NMII Ki/EC50 (Bovine cardiac myosin): NMII-sel
Photostability 4 hours [1]: 87.4%
Photostability 24 hours [1]: 7.6%
Photostability Dark (24 h) [1]: 93.8%

Cc1cc2c(cc1C)C(=O)[C@]1(O)CCN(c3ccc(C#N)c(C)c3)C1=N2 [BPN-0026661]
Ki (Rabbit skeletal myosin): 2.2 µM
Ki (Bovine cardiac myosin): 53 µM
Ratio CMMII:NMII Ki/EC50 (Bovine cardiac myosin): 22.1
Photostability 4 hours [1]: 95.5%
Photostability 24 hours [1]: 65.4%
Photostability Dark (24 h) [1]: 98.2%

Cc1cc2c(cc1C)C(=O)[C@]1(O)CCN(c3ccc(Cl)cc3)C1=N2 [BPN-0026662]
Ki (Rabbit skeletal myosin): 0.19 µM
Ki (Bovine cardiac myosin): 6 µM
Ratio CMMII:NMII Ki/EC50 (Bovine cardiac myosin): 5.5
Photostability 4 hours [1]: 85.4%
Photostability 24 hours [1]: 7.5%
Photostability Dark (24 h) [1]: >99%
